# In patent US9631001B2, “Peptide antagonists of the vasopressin-2 receptor” (COMMISSARIAT A L'ENERGIE ATOMIQUE ET AUX ENERGIES …, priority 2012, dated 2017):
# Tests used:
# [1] = target: vasopressin V2 receptor subtype (V2R) (Homo sapiens, UniProt P30518); test: 3H-AVP competition binding on V2R membranes; details: affinity for the V2R, equilibrium binding, 3H-AVP (FIG. 2)
# Experimental: Reaction mixtures contained 50 mM Tris-HCl, pH 7.4, 10 mM MgCl2 and 1 g/L BSA in a final volume of 100 μL. Plates were incubated for 3 h at room temperature. Binding reactions were stopped by filtration through a GF/C filter pre-soaked in 0.5% polyethyleneimine on a cell harvester ([sequence], Courtaboeuf, France) and plates were dried. […] A one-site inhibition mass action curve was fitted to inhibition binding data using Kaleidagraph (SYNERGY SOFTWARE, Reading, Pa., USA).
# V1bR = target: T1, V1bR (Homo sapiens, UniProt P47901); test: 3H-AVP competition binding on V1bR membranes; details: toxin at 1 μM
# T1 sequence (P47901 1-424): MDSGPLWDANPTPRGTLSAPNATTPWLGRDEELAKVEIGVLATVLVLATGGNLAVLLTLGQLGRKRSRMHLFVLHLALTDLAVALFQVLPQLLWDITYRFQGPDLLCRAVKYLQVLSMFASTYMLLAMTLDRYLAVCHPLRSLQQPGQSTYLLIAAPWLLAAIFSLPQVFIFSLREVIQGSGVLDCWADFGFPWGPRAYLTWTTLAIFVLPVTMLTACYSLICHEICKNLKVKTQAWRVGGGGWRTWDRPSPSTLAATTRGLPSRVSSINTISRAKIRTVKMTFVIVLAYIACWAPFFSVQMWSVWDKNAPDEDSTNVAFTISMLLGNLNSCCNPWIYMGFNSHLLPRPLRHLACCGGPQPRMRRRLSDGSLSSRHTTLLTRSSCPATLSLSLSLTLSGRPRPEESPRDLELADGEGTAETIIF
# Experimental: Membranes from cells expressing vasopressin receptors were purchased from […] (Courtaboeuf, France). Binding experiments were performed with ^3H-AVP ([…], Courtaboeuf, France) in 96-well plates. Reaction mixtures contained 50 mM Tris-HCl, pH 7.4, 10 mM MgCl2 and 1 g/L BSA in a final volume of 100 μL. Plates were incubated for 3 h at room temperature. Binding reactions were stopped by filtration through a GF/C filter pre-soaked in 0.5% polyethyleneimine on a cell harvester ([…], Courtaboeuf, France) and plates were dried. Ultimagold O (25 μl; […]) was added to each well and samples were counted using a TopCount counter ([…], Courtaboeuf, France) (Counting yield of 55%). […] A one-site inhibition mass action curve was fitted to inhibition binding data using Kaleidagraph (SYNERGY SOFTWARE, Reading, Pa., USA). IC50 values were converted to Ki for competition experiments using the Cheng-Prusoff equation (Cheng et al., Biochem. Pharmacol., 1973, 22, 3099-3108).
# CD1^pcy/pcy mice = test: Long-term administration experiment (99 days); format: in vivo, mouse; details: 0.1 μmol/kg/day i.p.
# Experimental: The toxin was dissolved in 0.9% NaCl at a concentration of 1 mg/ml and administered intraperitoneally to adult CD1^pcy/pcy mice at a dose of 0.1 μmol/kg/day. At 0, 30 70 and 99 days, urine was collected for 24 hours in metabolic cages and urine volume and urine osmolarity were determined.
# V2R = V2R (Homo sapiens, UniProt P30518); test: AVP-induced MAP kinase phosphorylation (HTRF) in tsA cells expressing V2R; format: cell-based; set-up: expressed in transfected cells
# V2R, sequence (P30518 whole entry): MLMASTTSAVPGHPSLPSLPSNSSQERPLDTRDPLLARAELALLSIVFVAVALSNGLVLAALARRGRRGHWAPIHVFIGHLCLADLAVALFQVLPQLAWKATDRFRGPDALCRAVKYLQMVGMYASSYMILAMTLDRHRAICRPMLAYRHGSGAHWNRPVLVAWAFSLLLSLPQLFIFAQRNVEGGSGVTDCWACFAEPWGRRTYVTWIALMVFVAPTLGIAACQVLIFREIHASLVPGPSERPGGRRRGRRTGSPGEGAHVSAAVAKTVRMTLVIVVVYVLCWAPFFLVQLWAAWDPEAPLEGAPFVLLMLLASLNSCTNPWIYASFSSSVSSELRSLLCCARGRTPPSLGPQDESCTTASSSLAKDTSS
# Experimental: Eight hours and twenty-four hours later, the cells were starved with serum-free medium and stimulated another twenty-seven hours later. […] In a 384 well plate, to 16 μl of lysed cells first 2 μl of the antibody against phosphorylated ERK labeled with acceptor fluorophore (AC-ERK-P-d2 emitting at 665 nm) and then 2 μl of the antibody against total ERK labeled with donor fluorophore (AC-ERK-K emiting at 620 nm) were added. When ERK phosphorylation occurs, the acceptor in close vicinity of the donor is able to emit at 665 nm producing the FRET signal. The increase in the 665/620 ratio corresponds to the increase in MAP kinase phosphorylation. Two hours later, RT-FRET was measured on a laser-based HTRF® reader Rubystar with Rubystar software (BMG LABTECH).
# vasopressin V2 receptor subtype (V2R), sequence (P30518 whole entry): as above
smiles,measurement,setting,value
CC[C@H](C)[C@@H]1NC(=O)[C@H]([C@@H](C)O)NC(=O)[C@H](CO)NC(=O)[C@H](Cc2ccccc2)NC(=O)[C@H](CCCNC(=N)N)NC(=O)[C@H](CC(N)=O)NC(=O)[C@H](C)NC(=O)[C@H](CC(N)=O)NC(=O)CNC(=O)[C@H](CCCCN)NC(=O)[C@@H]2CSSC[C@@H]3NC(=O)[C@@H]4CCCN4C(=O)CNC(=O)[C@@H]4CCCN4C(=O)[C@H](CCCCN)NC(=O)[C@H](C(C)C)NC(=O)[C@@H]4CCCN4C(=O)[C@H](CC(C)C)NC(=O)[C@H](CC(N)=O)NC(=O)[C@@H](NC(=O)[C@H](Cc4ccccc4)NC(=O)[C@H](CO)NC(=O)[C@@H]4CCCN4C(=O)[C@@H](N)CCCNC(=N)N)CSSC[C@@H](C(=O)N[C@H](C(=O)NCC(=O)O)C(C)C)NC(=O)[C@H]([C@@H](C)O)NC(=O)[C@H](CCCNC(=N)N)NC(=O)[C@H](CCCNC(=N)N)NC(=O)[C@H](CSSC[C@H](NC(=O)[C@H](CCCCN)NC(=O)[C@H](CC(N)=O)NC(=O)[C@H]([C@@H](C)O)NC(=O)[C@H](CCCCN)NC(=O)[C@H](CCC(N)=O)NC(=O)[C@H](CO)NC(=O)[C@H](Cc4ccc(O)cc4)NC(=O)[C@H](Cc4ccc(O)cc4)NC(=O)[C@H](Cc4ccccc4)NC(=O)[C@H](C)NC(=O)[C@H](CO)NC(=O)[C@H](Cc4ccccc4)NC(=O)[C@H](Cc4ccccc4)NC(=O)CNC(=O)[C@H](CC(N)=O)NC3=O)C(=O)N[C@@H](Cc3c[nH]cn3)C(=O)N[C@@H](CO)C(=O)N[C@@H](Cc3ccccc3)C(=O)N[C@@H]([C@@H](C)O)C(=O)N[C@@H](Cc3ccc(O)cc3)C(=O)NCC(=O)NCC(=O)N2)NC(=O)[C@H](CCCCN)NC(=O)[C@H](CCC(=O)O)NC1=O [U-Da2a],Ki,[1],0.002 to 0.005 µM
same,inhibition of 3H-AVP binding to V1bR,V1bR,did not inhibit
same,toxic effect after long-term daily injections,CD1^pcy/pcy mice,No toxic effect was detectable
same,Kb,V2R,0.126 µM
